From US12583911B2, “Human immunodeficiency virus GP120 binding proteins” (ViiV Healthcare UK (No.5) Limited, priority 2022, dated 2026) come the findings set out here.

Bounds are passed on as bounds.

Data set [1] in a line: Melting temperature (Tm) of soluble CD4 domains, Prometheus System. It counts as physicochemical. Conditions: soluble CD4 domain with C-terminal 6xHis tag. As to the method: The best performing variants (SEQ ID NOs: 5-21) were fused with 6×His tag at their C-termini, expressed and purified from mammalian cells using methods as described in Example 1, except that purification was via a Ni-NTA resin (Cytiva, Marlborough MA) instead of Mabselect SuRe column, with standard protocol from the vendor.
These purified CD4 D1 variants (with C-terminal 6xHis tag) were then evaluated to determine their melting temperature (Tm, using Prometheus System, NanoTemper, München Germany), which indicates thermal stability, as well as their anti-viral activity against HIV-1 pseudotyped virus (see Example 2 above for methods using ACTOne cells).

The next data set deals with HIV NL4-3 virus. Briefly: In vitro resistance barrier (viral breakthrough in MT2 cells). It counts as cell-based, HIV-1. Conditions: HIV NL4-3 in MT2 cells. As to the method:
To assess the resistance barrier of the bispecific molecules, we examined the relative rates at which HIV NL4-3 virus can escape inhibition by a panel of antibodies versus a DMSO control.
MT2 cells (2.0×10^5/well in RPMI 1640+[…] penicillin and streptomycin+10 mM HEPES buffer pH 7.55+2 mM L-glutamine. +0.2% DMSO) were pre-infected at an MOI (multiplicity of infection) of 0.005 for 2.5 hours and then pelleted to remove unbound virus particles. One mL of infected cells was added to each well of a 24 well plate.
Every 3-4 days images of the wells were captured and 1 ml of each well is removed and replaced by fresh preparations of each condition. This process was continued until there was viral breakthrough (observed cytopathic effect (CPE)>80%) or until there was a confirmed elimination of infected cells (via challenged elimination). When either condition was achieved, the sample was collected as pellet and supernatant (via centrifugation) and stored at −80° C. until genotypic analysis was performed to confirm the presence of resistance mutations. The days from infection to breakthrough were used to estimate the resistance barrier of a certain molecule. The longer it takes the virus to develop CPE, which indicates resistance, the higher the resistance barrier is.

For data set [2], the system named is panel of HIV-1 envelopes (pseudotyped HIV-1 virus). Briefly: PSV assay (ACTOne cells), HIV-1 envelopes. It counts as cell-based. As to the method: (§1) The anti-viral activity of the antigen binding proteins was measured in a pseudotyped virus (PSV) assay.
(§2) PSV was produced in HEK-293T cells (ATCC, Manassas VA) by co-transfecting expression plasmids encoding the HIV-1 gp160 envelope gene and an HIV-1 backbone plasmid using TRANSIT-2020 transfection reagent (Mirus Bio, Madison WI). A panel of HIV-1 PSVs expressing different gp160 envelope trimers was generated to evaluate the effectiveness of the antigen binding proteins of the invention against a wide spectrum of HIV-1 strains.
(§3) The genome of PSV used in this assay contains a luciferase gene that is expressed once the virus enters cells. Accordingly, the luminescence signal (after adding a substrate of luciferase) can be used to determine the level of viral infection.
(§4) The 50% tissue culture infectious dose (TCID) of a single thawed aliquot of each batch of PSV was determined in ACTOne cells. The ACTOne cell-line used in this assay was derived in-house from a genetically engineered 293T cell clone that expresses CD4, CXCR4, and CCR5. Cells were maintained in growth medium composed of Dulbecco's modified Eagle's medium (DMEM, Life Technologies) at 37° C. in a humidified 5% CO2-95% air environment. Cell monolayers were split by treatment with Trypsin-EDTA (0.05%).
(§5) To run the anti-viral assay, ACTOne cells were detached by treating the cell culture flask with trypsin (trypsinization) and resuspended in growth medium containing 2% of DMSO to a density of 2.5×10^5 cells/ml. One hundred μl of such cells was added to 10 μl of antigen binding protein pre-loaded in a 96-well plate. Ninety μl of PSV was then added to each well. The assay plates were incubated at 37° C. in a humidified incubator at 5% CO2 level. Plates were developed after 72 hours of incubation by adding 50 μl of BRIGHTGLO luciferase reagent (Promega, Madison WI) to each well, and transferring the plates to an ENVISION multilabel plate reader (PerkinElmer, Waltham MA) to measure the luminescence and determine the level of virus that had infected the cells. The higher the luminescence signal, the higher the level of infection.

For data set [3], the system named is NL4-3 (NLRepRluc replicating reporter virus). Briefly: Replicating virus assay using NLRepRluc virus (NL4-3) in MT-2 cells. Format: cell-based, HIV-1. Conditions: NL4-3, replicating virus assay. The text has this:
All clinical and laboratory isolates were originally obtained from the NIH AIDS Reagent Program (currently NIH HIV Reagent Program, https:hivreagentprogram.org/). The proviral clone of NL4-3 (obtained from NIH) was used to make the replicating reporter virus NLRepRluc, in which a section of the nef gene from the proviral clone of NL4-3 was replaced with the Renilla luciferase gene. Virus was produced through transfection of HEK293T cells using Lipofectamine Plus (Invitrogen, Carlsbad, CA), according to the manufacturer's instructions. […]
The NLRepRluc was used to infect MT-2 cells at a multiplicity of 0.01 for 1 hour before adding the proteins to the 96-well plates. […] After 4 days of incubation, cells were processed and quantitated for virus growth by the amount of expressed luciferase. Luciferase was quantitated using the ENDUREN substrate from Promega (Madison, WI) according to the manufacturer's instructions. Luciferase activity was measured immediately on an ENVISION multilabel plate reader (PerkinElmer, Waltham MA). EC50 values were calculated by comparing the amount of luciferase produced in the presence of antigen binding protein compared to wells where no antigen binding protein (DMSO control) was added. […]

Data set [4] deals with HIV-2 Env-pseudotypes (HIV-2-AID, HIV-2-ATM88, HIV-2-HCC-01). Put plainly: PSV assay (ACTOne cells), HIV-2 envelopes. It counts as cell-based. The conditions noted are these: PSV assay. How it is done: as §1, §2, §3, §4, §5
HIV-2 differs from HIV-1 in that it originates from the transmission of simian immunodeficiency virus (SIV) from sooty mangabeys (SIVsmm) to human (Gao et al, J Virol. 1994; 68 (11): 7433-7447) whilst HIV-1 stems from the transmission from chimpanzees and western gorillas (HIV-1 group M and O, respectively). HIV-2 can also cause AIDS but is far less pathogenic and wide-spread than HIV-1 (de Silva et al, Trends Microbiol. 2008; 16 (12): 588-595; Da Silva et al, AIDS. 2008; 22 (10): 1195-1202). Though also using CD4 for infection (Sattentau et al, AIDS. 1988; 2 (2): 101-105), HIV-2 shares only 40% identity in the gp160 amino acid sequence with HIV-1, and is therefore less sensitive or insensitive to HIV-1 envelope-directed bnAbs (Kong et al, JVI 2012; 86 (2): 947-960).

In general, IC50 refers to the concentration that inhibits the measured activity by half. A low value points to inhibition by little substance. A word on the EC50: it is the concentration that produces a half-maximal response.

Regarding “D1m_His: soluble human CD4 D1 variant mD1.22 (SEQ ID NO:4) plus C-terminal 6xHis tag [Molecule D1m_His, reference compound]”, the “Tm (° C.)” value in data set [1] came out at 68.2 °C. The “Average days before CPE” value is 4 days in the data set with HIV NL4-3 virus (group 20x EC50), 5 days in the data set on HIV NL4-3 virus (group 30x EC50) and 7 days in the data set on HIV NL4-3 virus (group 40x EC50). The half-maximal inhibitory concentration (IC50) in data set [2] (envelope 42368, PSV assay) amounted to 4.32 nM; in data set [2] (envelope BJOX2000, PSV assay), 70.9 nM; in data set [2] (envelope CAP45.2.00.G3, PSV assay), 131 nM; in data set [2] (envelope CC1/85, PSV assay) it was 7.02 nM; in data set [2] (envelope CH119, PSV assay), 90.7 nM; in data set [2] (envelope LAI, PSV assay), 8.79 nM. Further, the IC50 in data set [2] (envelope T278.50, PSV assay) came to 3.99 nM; in data set [2] (envelope TRO11, PSV assay), 68.4 nM; in data set [2] (envelope X1632_S2_B10, PSV assay), 16.2 nM; in data set [2] (envelope ZM106.9, PSV assay), 26 nM; in data set [4] (envelope HIV-2-AID, ACTOne cells), 104 nM; in data set [4] (envelope HIV-2-ATM88) it was 3.93 nM. In data set [4] (envelope HIV-2-HCC-01), this substance registered an IC50 greater than 500 nM. The same substance yielded an EC50 in data set [3] of 0.23 nM.
